Here are results for two molecules from article PMC9878307, “Derivatives of 2-aminobenzimidazole potentiate ASIC open state with slow kinetics of activation and desensitization” (Frontiers in Physiology, 2023).

SMILES strings stand for the structures.

Common to all, as to type: cell-based
One experiment deals with T1, ASIC3 (Rattus norvegicus, UniProt O35240).
T1 construct: rASIC3 expressed in CHO cells
T1 sequence (O35240 1-533): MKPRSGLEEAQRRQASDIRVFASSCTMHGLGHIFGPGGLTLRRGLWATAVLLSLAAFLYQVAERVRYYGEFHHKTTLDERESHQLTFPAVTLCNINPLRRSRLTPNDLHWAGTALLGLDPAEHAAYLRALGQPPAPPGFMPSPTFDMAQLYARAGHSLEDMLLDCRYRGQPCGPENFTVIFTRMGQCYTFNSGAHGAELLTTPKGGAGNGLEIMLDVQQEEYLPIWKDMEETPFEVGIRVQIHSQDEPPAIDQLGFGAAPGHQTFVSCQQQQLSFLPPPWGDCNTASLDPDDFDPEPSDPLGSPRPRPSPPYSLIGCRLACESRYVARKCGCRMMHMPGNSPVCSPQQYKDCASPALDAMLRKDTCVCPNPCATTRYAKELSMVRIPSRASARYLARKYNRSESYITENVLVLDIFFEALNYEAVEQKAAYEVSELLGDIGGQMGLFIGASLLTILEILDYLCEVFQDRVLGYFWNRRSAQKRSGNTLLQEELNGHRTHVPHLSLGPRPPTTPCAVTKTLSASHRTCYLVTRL
As to the kind of experiment: whole-cell patch clamp, […] inhibition of peak current at […]. For orientation: In patch-clamp work, channel activity is measured electrically.

The target in experiment [1] is T2, ASIC2a (Rattus norvegicus, UniProt Q62962).
T2 construct: gene Asic2; rASIC2a homomer expressed in CHO cells
T2 sequence (Q62962 1-512): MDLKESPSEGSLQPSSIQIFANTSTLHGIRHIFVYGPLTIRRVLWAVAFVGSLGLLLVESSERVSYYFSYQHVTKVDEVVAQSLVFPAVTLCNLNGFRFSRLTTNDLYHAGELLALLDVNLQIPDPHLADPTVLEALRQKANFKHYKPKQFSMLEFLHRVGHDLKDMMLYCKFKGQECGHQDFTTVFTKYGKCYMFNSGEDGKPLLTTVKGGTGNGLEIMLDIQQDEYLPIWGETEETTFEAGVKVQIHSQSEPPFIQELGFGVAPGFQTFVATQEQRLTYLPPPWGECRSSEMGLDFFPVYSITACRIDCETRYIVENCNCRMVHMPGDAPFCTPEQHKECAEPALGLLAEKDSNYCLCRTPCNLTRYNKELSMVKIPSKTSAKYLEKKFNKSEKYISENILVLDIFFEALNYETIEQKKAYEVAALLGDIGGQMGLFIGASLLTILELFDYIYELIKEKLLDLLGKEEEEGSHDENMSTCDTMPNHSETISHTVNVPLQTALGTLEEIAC
As to the kind of experiment: whole-cell patch clamp, […] inhibition of peak current at […], pH […]. The settings on record: pH 5.

A further experiment has as its target T3, ASIC1a (Rattus norvegicus, UniProt P55926).
T3 construct: gene Asic1; rASIC1a homomer expressed in CHO cells
T3 sequence (P55926 1-526): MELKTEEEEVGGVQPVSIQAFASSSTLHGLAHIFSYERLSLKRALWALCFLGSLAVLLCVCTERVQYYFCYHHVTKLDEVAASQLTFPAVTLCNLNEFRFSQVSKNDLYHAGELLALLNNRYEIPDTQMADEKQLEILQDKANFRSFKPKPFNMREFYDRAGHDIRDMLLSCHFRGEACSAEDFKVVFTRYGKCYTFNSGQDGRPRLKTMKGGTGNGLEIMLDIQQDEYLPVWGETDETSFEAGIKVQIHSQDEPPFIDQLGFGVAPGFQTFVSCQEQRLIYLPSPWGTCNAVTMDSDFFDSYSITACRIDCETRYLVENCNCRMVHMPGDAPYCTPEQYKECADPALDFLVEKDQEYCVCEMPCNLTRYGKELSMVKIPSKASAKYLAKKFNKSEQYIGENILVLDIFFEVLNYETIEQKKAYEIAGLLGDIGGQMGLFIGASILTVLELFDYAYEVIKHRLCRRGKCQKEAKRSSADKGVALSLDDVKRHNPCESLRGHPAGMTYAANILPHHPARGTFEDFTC
The experiment in a line: whole-cell patch clamp, slowed desensitization ([…] at […], […] at […]), amplitude unchanged.

Experiment [2] addresses T2, ASIC2a. As to the kind of experiment: whole-cell patch clamp, potentiation of acid-evoked peak current at pH […].

As for `N=C(N)c1ccc(/N=N/Nc2ccc(C(=N)N)cc2)cc1` [diminazene], the inhibition (usually the relative decrease from the control value, in per cent) at 70 µM on ASIC3 stood at 74 ± 8%; on ASIC2a [1], 75 ± 12%.
`Nc1n(CC(=O)c2ccc(F)cc2)c2ccccc2[n+]1CCN1CCOCC1` [Ru-1355]: at ASIC1a, the “fold slowing of desensitization” value was 1.28 ± 0.15. Moreover, at ASIC2a [2], the EC50 (as a rule, the concentration at which the effect is half-maximal) worked out at 7.52 ± 0.33 µM.
